The values below come from US7527021B2, “Non-invasive drug self-administration system for animals” (University of Virginia Patent Foundation, priority 2003, dated 2009).

Data set [1] is described as follows: Cocaine levels in the brains of self-administering animals (ELISA). The conditions noted are these: self-administered aerosol. The protocol: Animals were allowed access to the self administration system of the present invention and the number of nosepokes was recorded using two different concentrations of cocaine (1.8 or 21 mg/kg/spray). Animals were sacrificed within 20 min (animals 3,4) or 1 hr (animals 1,2) of last nosepoke, and all nosepokes occurred within less than 1 hr.

A further data set deals with mice. Put plainly: Intranasal aerosol cocaine self-administration, nose-poke frequency (FIG. 4). As to conditions: intra-nasal aerosol; inverted-U dose response, less self-administration at higher and lower concentrations; 4 h sessions.
For data set [2] the following is noted: 20/mg/kg cocaine via IP injection; cited from earlier work.

Molecules are shown by their SMILES.

For the compound `COC(=O)[C@H]1[C@@H](OC(=O)c2ccccc2)C[C@@H]2CC[C@H]1N2C` [cocaine], the “Cocaine conc in brain” value in data set [1] (animal 1, 6 pokes × 1.8 mg/kg/spray, sacrificed within 1 hr of last nosepoke) is 0.08 (mg/kg); in data set [1] (animal 2, 4 pokes × 1.8 mg/kg/spray, sacrificed within 1 hr of last nosepoke) it was 0.28 mg/kg; in data set [1] (animal 3, 1 poke × 21.0 mg/kg/spray, sacrificed within 20 min of last nosepoke) it was 1.03 mg/kg; in data set [1] (animal 4, 2 pokes × 21.0 mg/kg/spray, sacrificed within 20 min of last nosepoke), 2.96 mg/kg. Moreover, in the data set with mice, the “cocaine concentration at which animals nose-poke most frequently” value is roughly 0.9 mg/kg/infusion. Besides, the “cocaine in the brain” value in data set [2] is listed as 0.96 mg/kg.
